Measurements reported in patent US11773094B2, “Farnesoid X receptor agonists and uses thereof” (Metacrine, Inc., priority 2018, dated 2023).

Each compound was assayed against T1, hFXR (Homo sapiens, UniProt Q96RI1) (assay: In Vitro FXR Assay (TK): TK-ECRE-luc reporter in transfected CV-1 cells). Details: CV-1 cells transfected with hFXR, hRXR, pCMX-YFP, 18 hrs incubation, luminescence.
T1 construct: expressed in transfected cells; host or cells: CV-1 cells
T1 sequence (Q96RI1 1-486): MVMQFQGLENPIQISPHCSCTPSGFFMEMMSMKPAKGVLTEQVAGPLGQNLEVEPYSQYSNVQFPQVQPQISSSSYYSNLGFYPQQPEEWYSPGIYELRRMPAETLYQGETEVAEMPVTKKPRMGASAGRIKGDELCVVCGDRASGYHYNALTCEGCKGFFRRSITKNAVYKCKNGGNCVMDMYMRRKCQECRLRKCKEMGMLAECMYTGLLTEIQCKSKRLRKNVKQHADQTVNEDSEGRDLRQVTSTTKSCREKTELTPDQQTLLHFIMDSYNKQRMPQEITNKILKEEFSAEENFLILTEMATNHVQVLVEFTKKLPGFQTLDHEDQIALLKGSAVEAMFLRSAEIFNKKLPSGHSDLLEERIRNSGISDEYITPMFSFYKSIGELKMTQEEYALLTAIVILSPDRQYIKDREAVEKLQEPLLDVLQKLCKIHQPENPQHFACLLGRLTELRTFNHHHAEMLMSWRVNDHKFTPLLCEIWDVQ
T1 sequence (P19793 1-462 partner): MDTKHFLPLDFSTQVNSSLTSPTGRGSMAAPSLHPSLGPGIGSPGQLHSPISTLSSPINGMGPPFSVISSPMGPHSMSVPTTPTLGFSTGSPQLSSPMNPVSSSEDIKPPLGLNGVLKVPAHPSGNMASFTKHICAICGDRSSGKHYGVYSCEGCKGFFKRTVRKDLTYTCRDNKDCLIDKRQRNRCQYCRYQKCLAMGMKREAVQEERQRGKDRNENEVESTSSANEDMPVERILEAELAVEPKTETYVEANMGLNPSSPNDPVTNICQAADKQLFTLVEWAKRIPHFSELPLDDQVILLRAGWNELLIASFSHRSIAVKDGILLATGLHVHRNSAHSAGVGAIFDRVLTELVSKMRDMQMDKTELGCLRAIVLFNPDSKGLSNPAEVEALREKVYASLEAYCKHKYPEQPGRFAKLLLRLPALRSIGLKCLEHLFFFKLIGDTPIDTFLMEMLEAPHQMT
Assay type: cell-based
Procedure, shortened: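 CV-1 cells transiently cotransfected with hFXR, hRXR, TK-ECRE-luc reporter and pCMX-YFP plasmids in charcoal-stripped serum medium. Serially diluted compounds added for 18 h at 37° C., then cells lysed and luciferase luminescence measured.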

EC50	Structure (SMILES)
≤ 10 nM	COc1ccc(C23CCC(CN(c4cc(-c5cnc(C(C)(C)C)s5)ccn4)C(=O)[C@H]4CC[C@H](OC(=O)N5CC(CO)C5)CC4)(CC2)CC3)cc1C [Compound 3.08, 4-((4-(2-(tert-Butyl)thiazol-5-yl)pyridin-2-yl)((4-(4-methoxy-3-methylphenyl)bicyclo[2.2.2]octan-1-yl)methyl)carbamoyl) (trans-cyclohexyl) 3-(hydroxymethyl)azetidine-1-carboxylate]
≤ 10 nM	COc1ccc(C23CCC(CN(c4cc(-c5cnn(C(C)(C)C(F)(F)F)c5)ccn4)C(=O)[C@H]4CC[C@H](OC(=O)N5CC(O)C5)CC4)(CC2)CC3)cc1C [Compound 4.09, 4-(((4-(4-Methoxy-3-methylphenyl)bicyclo[2.2.2]octan-1-yl)methyl)(4-(1-(1,1,1-trifluoro-2-methylpropan-2-yl)-1H-pyrazol-4-yl)pyridin-2-yl)carbamoyl)cyclohexyl trans-3-hydroxyazetidine-1-carboxylate]
≤ 10 nM	CCC(C)(C)n1cc(-c2ccnc(N(CC34CCC(c5ccc(OC)c(C)c5)(CC3)CC4)C(=O)[C@H]3CC[C@H](OC(=O)NCCCO)CC3)c2)cn1 [Compound 4.03, 4-(((4-(4-Methoxy-3-methylphenyl)bicyclo[2.2.2]octan-1-yl)methyl)(4-(1-(tert-pentyl)-1H-pyrazol-4-yl)pyridin-2-yl)carbamoyl) cyclohexyl trans-(3-hydroxypropyl)carbamate]
10 to 1000 nM	CN(C)c1ccc(C23CCC(CN(c4cc(-c5cnn(C(C)(C)C)c5)ccn4)C(=O)[C@H]4CC[C@H](OC(=O)N5CC(O)C5)CC4)(CC2)CC3)cn1 [Compound 3.06, 4-((4-(1-(tert-Butyl)-1H-pyrazol-4-yl)pyridin-2-yl)((4-(6-(dimethylamino)pyridin-3-yl)bicyclo[2.2.2]octan-1-yl)methyl)carbamoyl) (trans-cyclohexyl) 3-hydroxyazetidine-1-carboxylate]
10 to 1000 nM	COc1ccc(C23CCC(CN(c4cc(-n5cnc(C(C)(C)C)c5)ccn4)C(=O)[C@H]4CC[C@H](OC(=O)N5CC(O)C5)CC4)(CC2)CC3)cc1C [Compound 4.11, 4-((4-(4-(tert-Butyl)-1H-imidazol-1-yl)pyridin-2-yl)((4-(4-methoxy-3-methylphenyl)bicyclo[2.2.2]octan-1-yl)methyl)carbamoyl) cyclohexyl trans-3-hydroxyazetidine-1-carboxylate]
≤ 10 nM	COc1ccc(C23CCC(CN(c4cc(-c5coc(C(C)(C)C)n5)ccn4)C(=O)[C@H]4CC[C@H](OC(=O)NC5CCOCC5)CC4)(CC2)CC3)cc1C [Compound 3.11, 4-((4-(2-(tert-Butyl)oxazol-4-yl)pyridin-2-yl)((4-(4-methoxy-3-methylphenyl)bicyclo[2.2.2]octan-1-yl)methyl)carbamoyl) cyclohexyl (tetrahydro-2H-pyran-4-yl)trans-carbamate]

More lines, now with the values behind:

Structure (SMILES)	EC50
COc1ccc(C23CCC(CN(c4cc(-c5cnn(C(C)(C)C)c5)ncn4)C(=O)[C@H]4CC[C@H](OC(=O)N5CC(O)C5)CC4)(CC2)CC3)cc1C [Compound 2.36, 4-((6-(1-(tert-Butyl)-1H-pyrazol-4-yl)pyrimidin-4-yl)((4-(4-methoxy-3-methylphenyl)bicyclo[2.2.2]octan-1-yl)methyl)carbamoyl) (trans-cyclohexyl) 3-hydroxyazetidine-1-carboxylate]	10 to 1000 nM
COc1ccc(C23CCC(CN(c4cc(-c5cnn(C(C)(C)C)c5)ccn4)C(=O)[C@H]4CC[C@H](OC(=O)NCCC(C)(C)O)CC4)(CC2)CC3)cc1C [Compound 2.32, 4-((4-(1-(tert-Butyl)-1H-pyrazol-4-yl)pyridin-2-yl)((4-(4-methoxy-3-methylphenyl)bicyclo[2.2.2]octan-1-yl)methyl)carbamoyl) (trans-cyclohexyl) (3-hvdroxy-3-methylbutyl)carbamate]	≤ 10 nM
COc1ccc([C@H]2CC[C@H](CN(c3cc(-c4coc(C(C)(C)C)n4)ccn3)C(=O)[C@H]3CC[C@H](OC(=O)N4CCC(O)CC4)CC3)CC2)cc1C [Compound 1.06, trans-4-((4-(2-(tert-Butyl)oxazol-4-yl)pyridin-2-yl)(((trans)-4-(4-methoxy-3-methylphenyl)cyclohexyl)methyl)carbamoyl) cyclohexyl 4-hydroxypiperidine-1-carboxylate]	10 to 1000 nM
COc1ccc([C@H]2CC[C@H](CN(c3cc(-c4cnc(C(C)(C)C)s4)ccn3)C(=O)[C@H]3CC[C@H](OC(=O)N4CC(O)C4)CC3)CC2)cc1C [Compound 1.01, trans-4-((4-(2-(tert-Butyl)thiazol-5-yl)pyridin-2-yl)(((trans)-4-(4-methoxy-3-methylphenyl)cyclohexyl)methyl)carbamoyl) cyclohexyl 3-hydroxyazetidine-1-carboxylate]	10 to 1000 nM
COc1ccc(C23CCC(CN(c4cc(-c5cnn(C(C)(C)C)c5)ccn4)C(=O)[C@H]4CC[C@H](OC(=O)N5CCC(O)CC5)CC4)(CC2)CC3)cc1C [Compound 2.27, 4-((4-(1-(tert-Butyl)-1H-pyrazol-4-yl)pyridin-2-yl)((4-(4-methoxy-3-methylphenyl)bicyclo[2.2.2]octan-1-yl)methyl)carbamoyl)cyclohexyl 4-hydroxypiperidine-trans-1-carboxylate]	≤ 10 nM
COc1ccc(C23CCC(CN(c4cc(-c5cnn(C(C)(C)C)c5)c(F)cn4)C(=O)[C@H]4CC[C@H](OC(=O)N5CC(O)C5)CC4)(CC2)CC3)cc1C [Compound 1.12, 4-((4-(1-(tert-Butyl)-1H-pyrazol-4-yl)-5-fluoropyridin-2-yl)((4-(4-methoxy-3-methylphenyl)bicyclo[2.2.2]octan-1-yl)methyl)carbamoyl) (trans-cyclohexyl) 3-hydroxyazetidine-1-carboxylate]	≤ 10 nM
COc1ccc(C23CCC(CN(c4cc(-c5cnc(C(C)(C)C)s5)ccn4)C(=O)[C@H]4CC[C@H](OC(=O)NCCO)CC4)(CC2)CC3)cc1C [Compound 2.06, 4-((4-(2-(tert-Butyl)thiazol-5-yl)pyridin-2-yl)((4-(4-methoxy-3-methylphenyl)bicyclo[2.2.2]octan-1-yl)methyl)carbamoyl)cyclohexyl (2-hydroxyethyl)trans-carbamate]	≤ 10 nM
COc1ccc(C23CCC(CN(c4cc(-c5cnc(C(C)(C)C)s5)ccn4)C(=O)[C@H]4CC[C@H](OC(=O)N5CC(OCCO)C5)CC4)(CC2)CC3)cc1C [Compound 2.07, 4-((4-(2-(tert-Butyl)thiazol-5-yl)pyridin-2-yl)((4-(4-methoxy-3-methylphenyl)bicyclo[2.2.2]octan-1-yl)methyl)carbamoyl) (trans-cyclohexyl) 3-(2-hydroxyethoxy)azetidine-1-carboxylate]	≤ 10 nM
COc1ccc([C@H]2CC[C@H](CN(c3cc(-c4cnc(C(C)(C)C)s4)ccn3)C(=O)[C@H]3CC[C@H](OC(=O)NC4CCOCC4)CC3)CC2)cc1C [Compound 1]	10 to 1000 nM
COc1c(C)cc(C23CCC(CN(c4cc(-c5cnn(C(C)(C)C)c5)ncn4)C(=O)[C@H]4CC[C@H](OC(=O)N5CC(O)C5)CC4)(CC2)CC3)cc1C [Compound 2.37, 4-((6-(1-(tert-Butyl)-1H-pyrazol-4-yl)pyrimidin-4-yl)((4-(4-methoxy-3,5-dimethylphenyl)bicyclo[2.2.2]octan-1-yl)methyl)carbamoyl) (trans-cyclohexyl) 3-hydroxyazetidine-1-carboxylate]	10 to 1000 nM
COc1ccc(C23CCC(CN(c4cc(-c5coc(C(C)(C)C)n5)ccn4)C(=O)[C@H]4CC[C@H](OC(=O)NCCO)CC4)(CC2)CC3)cc1C [Compound 2.19, 4-((4-(2-(tert-Butyl)oxazol-4-yl)pyridin-2-yl)((4-(4-methoxy-3-methylphenyl)bicyclo[2.2.2]octan-1-yl)methyl)carbamoyl)cyclohexyl (2-hydroxyethyl)trans-carbamate]	≤ 10 nM
